{
  "source": "paper PMC4667271",
  "about": "“Discovery of a Novel Inhibitor of the Protein Tyrosine Phosphatase Shp2” (Scientific Reports, 2015)",
  "key": {"PTPH1": {"target": "PTPH1 (Homo sapiens, UniProt P26045)", "sequence (P26045 646-901 limits assumed)": "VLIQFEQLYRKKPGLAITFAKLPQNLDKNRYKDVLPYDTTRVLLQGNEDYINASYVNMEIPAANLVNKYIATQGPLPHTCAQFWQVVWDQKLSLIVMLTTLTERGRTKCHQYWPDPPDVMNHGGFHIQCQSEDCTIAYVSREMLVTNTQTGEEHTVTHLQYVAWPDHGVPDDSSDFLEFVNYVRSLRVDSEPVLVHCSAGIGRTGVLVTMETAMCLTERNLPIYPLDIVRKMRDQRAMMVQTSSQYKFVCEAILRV", "assay": "in vitro PTP assay (pNPP), PTPH1", "assay_type": "biochemical", "description": "(§1) Plasmids for expression of His-tag fusion proteins of human PTP were constructed in PET-28a by PCR subcloning techniques. The constructions contain only the PTP domain except Full-length Shp2. Full-length Shp2 containing Tyr279-to-Ala mutant was generated by PCR-based mutagenesis. All constructs were verified by DNA sequencing. PTP-His fusion proteins were expressed in Escherichia coli BL21 and lysed in the buffer (50 mM NaH2PO4, 300 mM NaCl, 250 mM imidazole, 1 mM dithiothreitol plus 5% glycerol), purified with Ni-NTA Magnetic Agarose Beads (Qiagen). The His-tag recombinant purification protocol was carried out according to the purification under native conditions of the QIAexpress System.\n(§2) The assay was set in wells of 96-well plate with a final volume of 100 μl of reaction mixture containing 10 mM of NaAc-HAc, 1 mM of ethylene diamine tetraacetic acid, 1 mM of DL-dithiothreitol and 2% of dimethyl sulfoxide, pH 5.5. Activity of the enzyme was assayed by incubating recombinant PTP protein or mutant PTP with various concentrations of Fumos in the mixture at 37 °C for 30 min. Absorbance at 405 nm was detected immediately after addition of varied concentrations of substrate, p-nitrophenyl phosphate (pNPP) to each corresponding well."}, "STEP": {"target": "STEP (Homo sapiens, UniProt P54829)", "sequence (P54829 300-555 limits assumed)": "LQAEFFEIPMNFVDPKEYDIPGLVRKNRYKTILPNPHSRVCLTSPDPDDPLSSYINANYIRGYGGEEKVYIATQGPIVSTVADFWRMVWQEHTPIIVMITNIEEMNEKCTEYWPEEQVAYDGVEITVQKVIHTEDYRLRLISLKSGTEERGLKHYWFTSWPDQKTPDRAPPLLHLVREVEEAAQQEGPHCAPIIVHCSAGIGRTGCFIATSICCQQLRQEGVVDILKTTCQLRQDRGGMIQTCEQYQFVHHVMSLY", "assay": "biochemical", "description": "as §1, §2"}, "PTPRA": {"target": "PTPRA (Homo sapiens, UniProt P18433)", "sequence (P18433 241-501 limits assumed)": "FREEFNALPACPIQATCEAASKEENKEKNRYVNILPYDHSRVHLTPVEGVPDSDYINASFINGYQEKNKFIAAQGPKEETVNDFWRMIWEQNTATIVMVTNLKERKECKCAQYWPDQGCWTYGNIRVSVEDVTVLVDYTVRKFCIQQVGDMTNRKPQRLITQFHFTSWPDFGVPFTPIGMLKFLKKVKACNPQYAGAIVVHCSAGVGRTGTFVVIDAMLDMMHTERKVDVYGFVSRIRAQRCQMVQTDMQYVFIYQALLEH", "assay": "biochemical", "description": "as §1, §2"}, "[1]": {"test_system": "Src and Paxillin phosphorylation in HeLa cells", "assay": "Src, PLCγ1 and Paxillin phosphorylation, Western blot, HeLa", "assay_type": "cell-based, human", "details": "10-40 μM 24 h, EGF", "excerpt": "(§3) Figure 6 Fumos affects the phosphorylation of Src and Paxillin. […] DMSO treatment as control. Western blotting analysis for the expression of p-Src(Tyr416) p-Src (Tyr530), Src, p-PLCγ1, PLCγ1, p-Paxillin(Tyr118), p-Paxillin (Tyr31) and Paxillin. (b,c) Densitometric analysis of pSrc530/Src in the Western blots of Hela and MDA-MB-231, respectively. Bars represent mean ± S.E.M. values from three experiments, **p = 0.006 < 0.01/F = 8 vs EGF, one-way ANOVA followed by Tukey’s test.\n(§4) After centrifugation, the supernatant was collected."}, "[2]": {"test_system": "EGF-induced Ras activation in HeLa cells", "assay": "Ras activation assay (GST-RBD pull-down), HeLa", "assay_type": "cell-based, human", "details": "Fumos 20 μM", "description": "Active Ras was detected by use of the RBD of raf-1 fused to glutathione S-transferase (GST) as described previously. Cells were lysed in MLB buffer (25 mM Hepes, 150 mM NaCl, 1% Nonidet P-40, 0.25% sodium deoxycholate, 10% glycerol, 25 mM NaF, 1 mM Na3VO4, 10 mM MgCl2, 1 mM EDTA, pH 7.5) supplemented with complete EDTA-free protease inhibitor mixture. Total 500 μg cell lysate was incubated with 10–20 μg of GST-RBD bound beads(Merck) overnight at 4 °C. The beads were pelleted by centrifugation and washed three times with MLB buffer. The beads were boiled in SDS loading buffer and subjected to electrophoresis, followed by immunoblotting with an anti-Ras antibody (Santa Cruz Biotechnology)."}, "[3]": {"test_system": "PMA-induced ERK1/2 phosphorylation", "assay": "PMA-induced ERK1/2 activation, Western blot", "details": "pretreated 24 h, 100 nM PMA 5 min; even at highest concentration tested", "experimental": "Cells were pretreated with increasing concentrations of Fumos for 24 h, and then stimulated with 100 nM PMA for 5 min. DMSO treatment as control. ERK1/2 activation was analyzed by Western-Blot with antibodies to phosphorylated ERK1/2 (pERK) or ERK1/2. GAPDH is used as a loading control for Western Blot. The control treatment is not induced by PMA.\nCells were seeded in a culture bottle at 37 °C, under 5% CO2 and 95% air. […] Then cells were collected and dissolved in the lysis buffer (50 mM Hepes-NaOH, 100 mM NaCl, 0.5%NP-40, 2.5 mM EDTA, 10% glycerol, 1 mM DTT, 1 mM PMSF, 0.7 μl/ml pepstatin, 0.5 μg/ml leupetin, 2 μg/ml aprotinin). Cell lysates were centrifuged at 4 °C with the speed of 10,000 g for 15 min. After centrifugation, the supernatant was collected. 30 μg proteins were loaded on SDS-PAGE. After electrophoresis, proteins were transferred onto PVDF meber, and immunobloted with specific antibodies, and visualized using ECL reagent. Each membrane was stripped and reprobed with anti-GAPDH antibody to ensure equal protein loading. The bands were densitometrically scanned and analyzed using a BIO-RAD Gel Analysis System."}, "MDA-MB-231 cells": {"test_system": "MDA-MB-231 cells", "assay": "Transwell invasion assay, MDA-MB-231", "assay_type": "cell-based, human", "details": "4 and 14 μM, 24 h, EGF in lower chamber", "description": "The invasion assay was performed in Transwell chambers according to Corning methods. Briefly, the upper chamber of a Transwell insert ([…] pore size) was coated with 40 μl 1:6 mixture of Matrigel (BD Biosciences, Bedford): Opti-MEM (Invitrogen) for MDA-MB-231 and 40 μl 1:12 mixture of Matrigel: Opti-MEM (Invitrogen) for HeLa cells and dried for 2 h at 37 °C. The lower chamber was filled with serum-free media containing 10 ng/ml EGF. Cells were seeded into upper chamber at a density 5 × 10^4 cells/ml per well in serum-free media. Cells were treated with series concentrations of Fumos for 24 h. The top aspect of the membrane was gently swabbed the inside of each insert using cotton swabs, and cells that invaded on the lower surface of the membrane were fixed using methanol and stained with crystal violet (Beyotime Institute of Biotechnology). Random fields were counted and photographed by microscope (Olympus)."}, "[4]": {"test_system": "ERK1/2 phosphorylation in HeLa cells", "assay": "EGF-induced ERK1/2 activation, Western blot, HeLa", "assay_type": "cell-based, human", "details": "10-40 μM for 24 h, EGF 20 ng/ml 5 min", "excerpt": "as §4"}, "[5]": {"test_system": "Src and Paxillin phosphorylation in MDA-MB-231 cells", "assay": "Src, PLCγ1 and Paxillin phosphorylation, Western blot, MDA-MB-231", "assay_type": "cell-based, human", "details": "10-40 μM 24 h, EGF", "excerpt": "as §3, §4"}},
  "data": [
    {"molecule": "CC[C@@H](C)C[C@@H](C)/C=C(C)/C=C/C=C/C=C(\\C)C(=O)c1c(O)c(-c2ccc(O)cc2)cn(O)c1=O", "note": "[Fumos, Fumosorinone]", "values": [
      {"measurement": "IC50", "setting": "PTPH1; PTPH1 PTP domain", "value": "> 100", "unit": "µM"},
      {"measurement": "IC50 selective", "setting": "PTPH1; PTPH1 relative to Shp2 PTP domain", "value": ">16"},
      {"measurement": "IC50", "setting": "STEP; STEP PTP domain", "value": "> 100", "unit": "µM"},
      {"measurement": "IC50 selective", "setting": "STEP; STEP relative to Shp2 PTP domain", "value": ">16"},
      {"measurement": "IC50", "setting": "PTPRA; PTPRA PTP domain", "value": "> 100", "unit": "µM"},
      {"measurement": "IC50 selective", "setting": "PTPRA; PTPRA relative to Shp2 PTP domain", "value": ">16"},
      {"measurement": "Src Tyr416 phosphorylation", "setting": "[1]", "value": "dose-dependent downregulation"},
      {"measurement": "phosphorylated Tyr 530 of Src", "setting": "[1]", "value": "moderately increased"},
      {"measurement": "phosphorylation of PLCγ1", "setting": "[1]", "value": "decreased"},
      {"measurement": "phosphorylation of Paxillin at Tyr31", "setting": "[1]", "value": "peaked at low concentrations of Fumos and reduced at high concentrations"},
      {"measurement": "phosphorylation of Paxillin at Tyr118", "setting": "[1]", "value": "decreased with the increasing concentrations"},
      {"measurement": "EGF-induced endogenous Ras activation", "setting": "[2]", "value": "inhibited"},
      {"measurement": "PMA-induced ERK1/2 phosphorylation", "setting": "[3]", "value": "did not inhibit"},
      {"measurement": "cell invasion (Transwell)", "setting": "MDA-MB-231 cells", "value": "significantly inhibited"},
      {"measurement": "EGF-induced ERK1/2 phosphorylation", "setting": "[4]", "value": "drastically decreased"},
      {"measurement": "Src Tyr416 phosphorylation", "setting": "[5]", "value": "dose-dependent downregulation"},
      {"measurement": "phosphorylated Tyr 530 of Src", "setting": "[5]", "value": "moderately increased"},
      {"measurement": "phosphorylation of PLCγ1", "setting": "[5]", "value": "decreased"},
      {"measurement": "phosphorylation of Paxillin at Tyr31", "setting": "[5]", "value": "peaked at low concentrations of Fumos and reduced at high concentrations"},
      {"measurement": "phosphorylation of Paxillin at Tyr118", "setting": "[5]", "value": "decreased with the increasing concentrations"}
    ]}
  ]
}
